These results are taken from US20070254303A1, “Methods for assessing the efficacy of treatment with a glucocorticoid” (Praecis Pharmaceuticals Incorporated, priority 2006, published 2007).

Experiment [1] deals with T1, MetAP-2 in white blood cells (Rattus norvegicus, UniProt P38062).
T1 construct: white blood cells from animals of each study group were pooled and cell lysates were prepared; from tissue; host or cells: white blood cells of female Lewis rats (PG-PS arthritis model)
Nature of the experiment: MetAP-2 pharmacodynamic assay (ELISA of uninhibited MetAP-2 in white blood cell lysates of treated rats). It is filed as in vivo. The following applies: po, PG-PS arthritic rats, every other day, relative to the vehicle-treated group, read-out: MetAP-2 in white blood cells inhibited; for inhibition at 1 mg/kg: 1 mg/kg orally, pooled wbc after conclusion of study. The method, then:
After completion of the study, wbc from rats of different groups that had been treated with vehicle (p.o., qod), dex (1 mg/kg, p.o., qod) or MetAP-2 inhibitor (1, 5, or 10 mg/kg, p.o., qod) were pooled, lysed, and the amount of MetAP-2 inhibited in wbc lysates was determined by the MetAP-2 pharmacodynamic assay. All values are expressed as percentage of the amount of MetAP-2 inhibited compared with vehicle-treated rats. The amount of uninhibited MetAP-2 (=100%) in vehicle-treated rats in this assay corresponded to 41 ng MetAP-2 per mg wbc protein. The detection limit was 0.47 ng MetAP-2 per mg wbc protein. Columns: 10 rats per group, except for naive rats treated with vehicle (n=4).
(§1) Rat model of Peptidoglycan-Polysaccharide (PG-PS) induced arthritis. Female Lewis rats (109-130 g) were received from Charles River Laboratories. Food and water were available ad libitum. PG-PS (25 mg/kg) was injected intraperitoneally on day 1 and responding animals were randomized into treatment groups on day 14. Vehicle (11% HPCD in PBS), dexamethasone and a methionine aminopeptidase 2 inhibitor (1, 5, and 10 mg/kg) were administered orally, every other day. Paw swelling was monitored using a plethysmometer (Stoelting Co., Woodale, Ill.) according to instrument specifications. The volumes of the two hind paws were measured and averaged on day 1, 4, 6, 8, 10, 13, 15, 17, 20, 22, 23, 27, 29 and 31. Ten animals were assigned to each group except the vehicle group and animals which received no PG-PS, but 10 mg/kg of the methionine aminopeptidase 2 inhibitor (n=4). The methionine aminopeptidase 2 inhibitor comprising the structure structure (1-Carbamoyl-2-methyl-propyl)-carbamic acid-(3R, 4S, 5S, 6R )-5-methoxy-4-[(2R, 3R)-2-methyl-3-(3-methyl-but-2-enyl)-oxiranyl]-1-oxa-spiro[2.5]oct-6-yl ester was used in the present studies.
MetAP-2 pharmacodynamic assay. The MetAP-2 assay is an ELISA assay that measures the amount of uninhibited MetAP-2 in cells or tissues which has not been derivitized by prior treatment with a methionine aminopeptidase 2 inhibitor and/or a glucocorticoid. The assay was performed as described in, for example, Bernier, S. G., et al. (2004) Proc. Natl. Acad. Sci. USA 101: 10768-10773 and Bernier, S. G., et al. (2005) J. Cell. Biochem. 95:1191-1203, the entire contents of each of which are incorporated herein by reference. Briefly, white blood cells from animals of each study group were pooled and cell lysates were prepared as described in, for example, Bernier, S. G., et al. (2004) Proc. Natl. Acad. Sci. USA 101: 10768-10773 and Bernier, S. G., et al. (2005) J. Cell. Biochem. 95:1191-1203. […] After 1 hour, the plates were washed, and the immobilized biotinylated MetAP-2-inhibitor complex was then detected with an anti-MetAP-2 antibody, CM33 (0.5 μg/ml). […]

Experiment [2] relates to Peptidoglycan-Polysaccharide (PG-PS) induced arthritis. Nature of the experiment: Rat model of PG-PS induced arthritis, paw swelling of the hind limbs. The format is in vivo. The conditions noted are these: 1, 5 and 10 mg/kg orally, every other day, day 15 to day 31; compared to vehicle-treated animals. How it is done:
as §1

A value given as a limit tells only on which side of the number the result lay.

T1 sequence (P38062 whole entry): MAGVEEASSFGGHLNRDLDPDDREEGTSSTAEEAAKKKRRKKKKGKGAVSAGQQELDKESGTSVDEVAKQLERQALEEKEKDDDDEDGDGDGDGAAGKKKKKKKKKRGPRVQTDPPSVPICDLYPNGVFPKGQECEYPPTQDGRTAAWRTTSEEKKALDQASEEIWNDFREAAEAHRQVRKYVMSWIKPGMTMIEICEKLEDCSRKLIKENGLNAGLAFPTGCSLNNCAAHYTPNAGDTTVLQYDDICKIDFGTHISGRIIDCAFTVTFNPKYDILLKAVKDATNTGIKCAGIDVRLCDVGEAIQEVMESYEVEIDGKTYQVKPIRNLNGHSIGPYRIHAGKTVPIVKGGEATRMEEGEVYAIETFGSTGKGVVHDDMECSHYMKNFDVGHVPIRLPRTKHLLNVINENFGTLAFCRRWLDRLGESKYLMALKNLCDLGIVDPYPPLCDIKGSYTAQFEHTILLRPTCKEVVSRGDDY

Regarding `C[C@@H]1C[C@H]2[C@@H]3CCC4=CC(=O)C=C[C@]4(C)[C@@]3(F)[C@@H](O)C[C@]2(C)[C@@]1(O)C(=O)CO` [dexamethasone, reference compound], the inhibition at 1 mg/kg in experiment [1] was not below 90%.

`CO[C@@H]1[C@H](OC(=O)N[C@@H](C(N)=O)C(C)C)CC[C@]2(CO2)[C@H]1[C@@]1(C)O[C@@H]1CC=C(C)C` [methionine aminopeptidase 2 inhibitor, (1-Carbamoyl-2-methyl-propyl)-carbamic acid-(3R, 4S, 5S, 6R )-5-methoxy-4-[(2R, 3R)-2-methyl-3-(3-methyl-but-2-enyl)-oxiranyl]-1-oxa-spiro[2.5]oct-6-yl ester]: the “joint swelling and inflammation, measured by paw swelling of the hind limbs” value in experiment [2] is “significant amelioration of joint swelling and inflammation”. For the same compound, the inhibition at 1 mg/kg in experiment [1] was not below 60%. For the same compound, the inhibition at 5 mg/kg in experiment [1] (5 mg/kg orally) was not below 95%. Further, in experiment [1] (10 mg/kg orally), the inhibition at 10 mg/kg is not below 95%.
